US20210139441A1 (priority 2017, published 2021)

Tested on: Crl:CD(SD) rats
Conditions: rat, in vivo

With `FC(F)(F)[C@@H]1O[C@@H]1C(F)(F)F` [(2R,3S)-2,3-bis(trifluoromethyl)oxirane, Cis-2,3-bis(trifluoromethyl)oxirane] as the compound, how does the “Fractional mortalities (number of deaths/number exposed)” value (both, Crl:CD(SD)) read?
Its value is 0/4.

What about the “activity level and breathing rate” value of the same compound?
The value was “decreased”.

And the bodyweight loss?
Its bodyweight loss is 3 gram.

What about the “clinical signs after exposure” value of the same compound?
Its value is “no abnormal clinical signs”.

And the “clinical signs of toxicity” value?
The value was “no clinical signs of toxicity”.

What about the “startle response after exposure” value of the same compound?
Its value is “normal startle response”.

And the “startle response during the exposure” value?
Its value is “normal startle responses”.

What about the “state and response to sound stimulus” value of the same compound?
Its value is “prostrate and unresponsive to sound stimulus”.
